In publication PMC10841833 (Cancer research, 2023) one finds IC50 data, which are given here for 1 molecule.

The structures appear in SMILES notation.

In general, IC50 refers to the point on the concentration scale where inhibition reaches its midpoint. The low end stands for higher potency, the high end for lower potency.

For this test, the target named is citron kinase (CIT/CRIK) (Homo sapiens, UniProt O14578). Description: in vitro kinase assay. The format is biochemical.
Chain of citron kinase (CIT/CRIK) (O14578 whole entry): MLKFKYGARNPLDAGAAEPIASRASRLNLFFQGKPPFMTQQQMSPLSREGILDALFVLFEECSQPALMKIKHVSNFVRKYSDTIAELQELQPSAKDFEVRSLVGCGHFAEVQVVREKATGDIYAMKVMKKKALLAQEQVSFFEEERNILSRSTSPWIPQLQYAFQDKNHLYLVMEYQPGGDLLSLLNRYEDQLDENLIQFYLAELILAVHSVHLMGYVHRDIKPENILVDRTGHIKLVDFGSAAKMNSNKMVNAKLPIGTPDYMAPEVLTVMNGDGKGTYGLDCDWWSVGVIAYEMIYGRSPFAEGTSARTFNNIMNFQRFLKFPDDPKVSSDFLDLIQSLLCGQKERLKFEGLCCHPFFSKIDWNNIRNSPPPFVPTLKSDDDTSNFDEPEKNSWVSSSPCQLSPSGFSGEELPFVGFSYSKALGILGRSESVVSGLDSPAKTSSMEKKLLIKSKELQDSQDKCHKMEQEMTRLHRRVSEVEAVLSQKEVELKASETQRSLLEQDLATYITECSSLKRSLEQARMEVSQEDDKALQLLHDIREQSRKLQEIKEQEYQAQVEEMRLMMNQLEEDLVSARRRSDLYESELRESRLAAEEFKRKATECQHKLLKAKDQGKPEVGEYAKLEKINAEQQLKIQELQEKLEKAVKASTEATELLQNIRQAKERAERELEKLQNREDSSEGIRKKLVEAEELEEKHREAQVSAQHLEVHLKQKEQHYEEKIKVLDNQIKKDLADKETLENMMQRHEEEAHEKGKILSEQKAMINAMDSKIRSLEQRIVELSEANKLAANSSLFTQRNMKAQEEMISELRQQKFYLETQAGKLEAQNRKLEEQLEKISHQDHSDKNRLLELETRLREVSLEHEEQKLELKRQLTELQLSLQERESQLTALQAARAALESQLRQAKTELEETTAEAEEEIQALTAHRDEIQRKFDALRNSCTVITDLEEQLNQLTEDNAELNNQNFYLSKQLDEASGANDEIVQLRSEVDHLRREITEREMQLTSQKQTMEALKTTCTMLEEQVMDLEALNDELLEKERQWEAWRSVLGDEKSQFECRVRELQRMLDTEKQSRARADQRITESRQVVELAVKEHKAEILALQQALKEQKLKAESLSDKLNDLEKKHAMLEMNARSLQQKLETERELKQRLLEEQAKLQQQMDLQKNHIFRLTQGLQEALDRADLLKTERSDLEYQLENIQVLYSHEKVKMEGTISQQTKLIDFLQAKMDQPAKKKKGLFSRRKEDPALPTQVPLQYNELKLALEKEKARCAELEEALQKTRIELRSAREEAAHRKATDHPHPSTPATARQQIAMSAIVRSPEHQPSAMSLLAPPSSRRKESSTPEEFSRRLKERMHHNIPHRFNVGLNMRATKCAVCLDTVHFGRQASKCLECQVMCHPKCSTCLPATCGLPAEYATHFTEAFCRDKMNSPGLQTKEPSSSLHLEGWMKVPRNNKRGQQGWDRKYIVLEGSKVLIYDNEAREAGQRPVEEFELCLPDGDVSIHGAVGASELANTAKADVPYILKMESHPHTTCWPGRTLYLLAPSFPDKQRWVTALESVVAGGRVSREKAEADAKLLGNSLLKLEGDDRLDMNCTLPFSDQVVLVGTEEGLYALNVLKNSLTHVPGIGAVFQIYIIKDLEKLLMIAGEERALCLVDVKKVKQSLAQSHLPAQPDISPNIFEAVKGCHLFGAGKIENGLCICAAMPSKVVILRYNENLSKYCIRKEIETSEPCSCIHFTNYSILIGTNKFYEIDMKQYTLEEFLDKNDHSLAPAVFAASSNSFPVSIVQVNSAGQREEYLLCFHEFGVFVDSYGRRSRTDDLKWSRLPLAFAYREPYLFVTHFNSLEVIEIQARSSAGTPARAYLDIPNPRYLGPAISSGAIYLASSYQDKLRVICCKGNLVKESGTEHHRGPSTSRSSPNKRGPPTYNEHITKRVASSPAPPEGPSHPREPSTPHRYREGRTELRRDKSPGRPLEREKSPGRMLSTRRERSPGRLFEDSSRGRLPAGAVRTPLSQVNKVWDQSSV

For `CC(=O)c1cnc2ccc(-c3cc(Cl)c(O)c(Cl)c3)nc2c1N[C@H]1CC[C@H](CN(C)C)CC1` [OTS-167], the IC50 was around 10 nM.
